Reference: PMC5505240, “The structure of a complex of the lactonohydrolase zearalenone hydrolase with the hydrolysis product of zearalenone at 1.60 Å resolution” (Acta Crystallographica. Section F, Structural Biology …, 2017)

Experiments:
[1] = target: T1, ZHD (zearalenone hydrolase) (Clonostachys rosea, UniProt Q8NKB0, V26I/P69A/V87I/K148N/M168L/D170V/K198Q/L200V); assay: HPLC of remaining ZEN; format: biochemical; conditions: 100 mM Tris-HCl pH 9.5, 30 °C, 15 nM ZHD, 1-50 µM ZEN
T1 construct: gene zhd101; full length; natural clone from genomic DNA of a CGMCC strain; extra N-terminal MD; E. coli BL21(DE3); dimer

[2] = target: the molecule itself; assay: SEC; HiLoad 16/60 Superdex 200 prep-grade column, last step of the purification; oligomeric state from the elution position

C[C@H]1CCCC(=O)CCC/C=C/c2cc(O)cc(O)c2C(=O)O1 [ZEN, zearalenone]
Km [1]: 3.5 µM

B1: Zearalenone hydrolase (ZHD), C-terminally His6-tagged (enzyme, Clonostachys rosea)
chain: MDMRTRSTISTPNGITWYYEQEGTGPDIVLVPDGLGECQMFDSSVSQIAAQGFRVTTFDMPGMSRSAKAPAETYTEVTAQKLASYVISILDALDIKHATVWGCSSGASTVVALLLGYPDRIRNAMCHELPTKLLDHLSNTAVLEDEEISNILANVMLNDVSGGSEAWQALGVEVHARLHKNYPVWARGYPRTIPPSAPVQDVEALRGKPLDWTVGAATPTESFFDNIVTATKAGVNIGLLPGMHFPYVSHPDVFAKYVVETTQKHLWNSSSVDKLAAALE
notes: zearalenone hydrolase (ZHD) cloned from genomic DNA of a Clonostachys rosea strain (CGMCC); natural strain variant with eight amino-acid variations compared with GenBank ALI16790.1; 14-amino-acid linker between ZHD and the C-terminal His6 tag; The His6 is written under tags, the linker as a part; The substitutions count against GenBank ALI16790.1, not necessarily against the UniProt entry; also …
stoichiometry N [2]: 2
